Measured values: paper PMC12396409, “Screening and hit evaluation of a microbial metabolite library against the pathogenic Plasmodium falciparum and Toxoplasma gondii parasites” (International Journal for Parasitology: Drugs and Drug …, 2025)
Where two headings read alike, the source gives them in different places.

Columns and labels:
[1] = system: P. falciparum 3D7 parasites; test: P. falciparum growth inhibition assay, 1-cycle (72 h treatment), SYBR DNA staining (library screen at 2 μg/mL and dose-response); assay type: cell-based, Plasmodium falciparum; settings: for activity at 2 µg/mL: Plasmodium falciparum, P. falciparum; for Pf_72h_%Growth_Rep1 / Pf_72h_%Growth_Rep2: library screen at 2 μg/mL
[2] = system: P. falciparum 3D7 parasites; test: P. falciparum growth inhibition assay, 2-cycle (120 h treatment), delayed-death screen and dose-response; assay type: cell-based, Plasmodium falciparum; settings: for activity at 2 µg/mL: Plasmodium falciparum, P. falciparum; for Pf_120h_%Growth_Rep1 / Pf_120h_%Growth_Rep2: library screen at 2 μg/mL
[3] = system: T. gondii RH strain (RH-Tub-eYFP) tachyzoites; test: microbe, parasite or virus in culture; assay type: cell-based, Toxoplasma gondii
[4] = 3D7, 72 h, screen at 2 μg/mL, replicate 1, read-out: Pf_72h_%Growth_Rep1
[5] = 3D7, 72 h, screen at 2 μg/mL, replicate 2, read-out: Pf_72h_%Growth_Rep2
[6] = 3D7, 120 h, screen at 2 μg/mL, replicate 1, read-out: Pf_120h_%Growth_Rep1
[7] = 3D7, 120 h, screen at 2 μg/mL, replicate 2, read-out: Pf_120h_%Growth_Rep2
[8] = P. falciparum 3D7, 72 h, % growth, replicate 1
[9] = P. falciparum 3D7, 72 h, % growth, replicate 2
[10] = P. falciparum 3D7, 120 h, % growth, replicate 1
[11] = P. falciparum 3D7, 120 h, % growth, replicate 2
[12] = T. gondii RH, 72 h, library screen at 2 μg/mL, % growth, replicate 1
[13] = T. gondii RH, 72 h, library screen at 2 μg/mL, % growth, replicate 2
[14] = Toxoplasma gondii, 72 h, T. gondii, 72 h, screen at 2 μg/mL, replicate 1; read-out: Tg_72h_%Growth_Rep1
[15] = Toxoplasma gondii, 72 h, T. gondii, 72 h, screen at 2 μg/mL, replicate 2; read-out: Tg_72h_%Growth_Rep2
[16] = library screen at 2 μg/mL, 72 h, % growth, replicate 1
[17] = library screen at 2 μg/mL, 72 h, % growth, replicate 2

For `COc1ccc2c3c4n(c2c1)[C@H](C=C(C)C)OOC(C)(C)C[C@@H]4N1C(=O)[C@@H]2CCCN2C(=O)[C@]1(O)[C@H]3O` [Verruculogen], the activity at 2 µg/mL [1, 4] was 58.1%, the activity at 2 µg/mL [1, 5] was 88.5% and the activity at 2 µg/mL [2, 6] was 144%. It also gave an activity at 2 µg/mL [2, 7] of 80.6%, a percent parasite growth at 2 µg/mL ([3]; Toxoplasma gondii; T. gondii, 72 h, screen at 2 μg/mL, replicate 1; read-out: Tg_72h_%Growth_Rep1) of 92.4% and a percent parasite growth at 2 µg/mL ([3]; Toxoplasma gondii; T. gondii, 72 h, screen at 2 μg/mL, replicate 2; read-out: Tg_72h_%Growth_Rep2) of 102%.
For `CCCCCCCCCCCCCCCC(=O)NC1CCOC1=O` (stereo not drawn) [BIA-H1500], the Pf_72h_%Growth_Rep1 [1, 8] was 91.73%, the Pf_72h_%Growth_Rep2 [1, 9] was 78.97% and the Pf_120h_%Growth_Rep1 [2, 10] was 95.21%. The Pf_120h_%Growth_Rep2 [2, 11] was 120.58%, the Tg_72h_%Growth_Rep1 [3, 12] was 108.53% and the Tg_72h_%Growth_Rep2 [3, 13] was 91.16%.
Work on `CN(C)c1cc(NC(=O)CNC(C)(C)C)c(O)c2c1C[C@H]1C[C@H]3[C@H](N(C)C)C(O)=C(C(N)=O)C(=O)[C@@]3(O)C(O)=C1C2=O` [Tigecycline] yielded an activity at 2 µg/mL [1, 4] of 88.2%, an activity at 2 µg/mL [1, 5] of 87.6% and an activity at 2 µg/mL [2, 6] of 106%. The activity at 2 µg/mL [2, 7] was 93.4%, the percent parasite growth at 2 µg/mL [3, 14] was 144% and the percent parasite growth at 2 µg/mL [3, 15] was 97%.
`C=C1CCO[C@]2([C@@H](O)[C@@](C)(O)COC(=O)c3ccccc3)NC(=O)[C@@]1(O)NC2=O` [Bicyclomycin benzoate] showed a Pf_72h_%Growth_Rep1 ([1]; 72 h, % growth, replicate 1) of 94.43%, a Pf_72h_%Growth_Rep2 ([1]; 72 h, % growth, replicate 2) of 88.43% and a Pf_120h_%Growth_Rep1 ([2]; 120 h, % growth, replicate 1) of 148.77%. The Pf_120h_%Growth_Rep2 ([2]; 120 h, % growth, replicate 2) was 99.84%, the Tg_72h_%Growth_Rep1 [3, 16] was 81.93% and the Tg_72h_%Growth_Rep2 [3, 17] was 95.48%.
`COc1cc(C(=O)O)c2c(c1C)OC(=O)c1c(C)cc(O)c(C=O)c1O2` [Psoromic acid] showed an activity at 2 µg/mL ([1]; 3D7, 72 h, parasite screen 2 μg/mL, % growth, replicate 1, read-out: Pf_72h_%Growth_Rep1) of 92.3%, an activity at 2 µg/mL ([1]; 3D7, 72 h, parasite screen 2 μg/mL, % growth, replicate 2, read-out: Pf_72h_%Growth_Rep2) of 123% and an activity at 2 µg/mL ([2]; 3D7, 120 h, parasite screen 2 μg/mL, % growth, replicate 1, read-out: Pf_120h_%Growth_Rep1) of 90.8%. It also gave an activity at 2 µg/mL ([2]; 3D7, 120 h, parasite screen 2 μg/mL, % growth, replicate 2, read-out: Pf_120h_%Growth_Rep2) of 141%, a percent parasite growth at 2 µg/mL ([3]; Toxoplasma gondii, 72 h, T. gondii, 72 h, parasite screen 2 μg/mL, % growth, replicate 1; read-out: Tg_72h_%Growth_Rep1) of 127% and a percent parasite growth at 2 µg/mL ([3]; Toxoplasma gondii, 72 h, T. gondii, 72 h, parasite screen 2 μg/mL, % growth, replicate 2; read-out: Tg_72h_%Growth_Rep2) of 82.8%.
`O=C(O)/C=C/c1ccc(O)c(O)c1` [Caffeic acid] was tested, and the activity at 2 µg/mL ([1]; 3D7, 72 h, 72 h, screen at 2 μg/mL, replicate 1, read-out: Pf_72h_%Growth_Rep1) was 83.7%, the activity at 2 µg/mL ([1]; 3D7, 72 h, 72 h, screen at 2 μg/mL, replicate 2, read-out: Pf_72h_%Growth_Rep2) was 86% and the activity at 2 µg/mL ([2]; 3D7, 120 h, 120 h, screen at 2 μg/mL, replicate 1, read-out: Pf_120h_%Growth_Rep1) was 144%. The activity at 2 µg/mL ([2]; 3D7, 120 h, 120 h, screen at 2 μg/mL, replicate 2, read-out: Pf_120h_%Growth_Rep2) was 88.4%, the percent parasite growth at 2 µg/mL [3, 14] was 101% and the percent parasite growth at 2 µg/mL [3, 15] was 88.3%.
`CC[C@H](C)[C@H]1O[C@]2(C=C[C@@H]1C)C[C@@H]1C[C@@H](C/C=C(\C)[C@@H](O)[C@@H](C)/C=C/C=C3\CO[C@@H]4[C@H](O)C(C)=C[C@@H](C(=O)O1)[C@]34O)O2` [Avermectin B1a aglycone] gave a Pf_72h_%Growth_Rep1 ([1]; 72 h, % growth, replicate 1) of 81.70%, a Pf_72h_%Growth_Rep2 ([1]; 72 h, % growth, replicate 2) of 78.59% and a Pf_120h_%Growth_Rep1 ([2]; 120 h, % growth, replicate 1) of 81.78%. It also gave a Pf_120h_%Growth_Rep2 ([2]; 120 h, % growth, replicate 2) of 74.45%, a Tg_72h_%Growth_Rep1 [3, 16] of 137.71% and a Tg_72h_%Growth_Rep2 [3, 17] of 97.71%.
`CC(=O)c1c(O)cc(O)c(C(C)=O)c1O` [Diacetylphloroglucinol] gave a Pf_72h_%Growth_Rep1 ([1]; 72 h, % growth, replicate 1) of 86.52%, a Pf_72h_%Growth_Rep2 ([1]; 72 h, % growth, replicate 2) of 90.35% and a Pf_120h_%Growth_Rep1 ([2]; 120 h, % growth, replicate 1) of 64.84%. It also gave a Pf_120h_%Growth_Rep2 ([2]; 120 h, % growth, replicate 2) of 102.18%, a Tg_72h_%Growth_Rep1 [3, 16] of 140.70% and a Tg_72h_%Growth_Rep2 [3, 17] of 94.75%.
`CCCC(O)C(O)C1CC(OC)=CC(=O)O1` (stereo not drawn) [BIA-H1068] showed a Pf_72h_%Growth_Rep1 [1, 8] of 88.88%, a Pf_72h_%Growth_Rep2 [1, 9] of 77.83% and a Pf_120h_%Growth_Rep1 [2, 10] of 95.79%. It also gave a Pf_120h_%Growth_Rep2 [2, 11] of 147.07%, a Tg_72h_%Growth_Rep1 [3, 12] of 107.81% and a Tg_72h_%Growth_Rep2 [3, 13] of 92.55%.
